Source: PubChem BioAssay AID1919006 (Molecular Pharmacology Branch, DTP, NCI, 2023)

Tested on: 885512-296-R-J2-PDC complex spheroid growth, % test/control
Test: Anticancer human tumor 885512-296-R-J2-PDC patient-derived breast carcinoma cell line growth inhibition [AhR]
Conditions: for IC50: curve of first compound; for viability, T/C: stronger effect = lower value
Source text: Multicellular complex tumor spheroid response to aryl hydrocarbon receptor antagonists in combination with a variety of drugs and investigational agents in selected tumor cell lines
The current study was undertaken to assess response to aryl hydrocarbon receptor antagonists in combination with standard-of-care drugs and investigational agents in solid tumor complex spheroid models. Complex spheroids include a stromal component modeled by human endothelial cells (HUVEC) and fibroblasts modeled by human mesenchymal stem cells (MSCs). The concentration ranges selected for each drug and investigational agent were based upon clinically achievable concentrations if the clinical Cmax of the agent was known.
Compounds. The drugs and investigational agents: BAY 2416964 (NSC825713), GNF351 (NSC835774), CH-223191 (NSC835775), CPI-455 (NSC825282), aza-TdCyd (NSC777586), decitabine (NSC127716), belinostat (NSC758774), entinostat (NSC756642), pevonedistat (NSC761192), tazemetostat (NSC777109), talazoparib (NSC765396), olaparib (NSC753686), selinexor (NSC780203), nedisertib (M3814, NSC802822), bortezomib (NSC756655), venetoclax (NSC766270), doxorubicin (NSC123127), elimusertib (BAY189344, NSC800525), ceralasertib (AZD6738, NSC777638), TAK-243 (NSC785004), alisertib (NSC759677), etoposide (NSC141540), topotecan (NSC609699), eribulin (NSC707389), gemcitabine (NSC613327), carboplatin (NSC241240), cisplatin (NSC119875), and SN-38 (NSC673596) were obtained from the National Cancer Institute (NCI) Developmental Therapeutics Program Chemical Repository (32). The FDA-approved anticancer drug set is available from the Developmental Therapeutics Program at https://dtp.cancer.gov/organization/dscb/obtaining/available plates.htm. […] The stock solutions were prepared in dimethyl sulfoxide (DMSO, Sigma-Aldrich, St. Louis, MO, cat. D2650), except for the platinum compounds which were prepared in saline (Quality Biological, Gaithersburg, MD, cat. 114-055-101), at 800-fold the tested concentration and stored at -70 degrees C prior to their use. All drugs and investigational agents were tested over a range starting from a high concentration at or near the clinical Cmax and decreasing in half-log increments. If the clinical Cmax for an agent had not been determined, the highest concentration tested was 10 microM (Table 1).
Cell Culture. All cells were maintained in an incubator at 37 degrees C and 5% CO2 with 95% humidity. The PDC lines were cultured according to standard operating procedures established by the NCI PDMR (https://pdmr.cancer.gov). Briefly, all PDCs were thawed and cultured in Matrigel-coated flasks prepared with a working solution of 1X Ham's F-12 nutrient mix, without supplementation (Invitrogen, Waltham, MA, cat. 11765054), 100 U/mL penicillin-streptomycin (Invitrogen, cat. 15140122), and 2.5% Matrigel (Corning Inc., Corning, NY, cat. 354248) for the first three passages. All PDCs were cultured in complete DMEM/F-12 media containing advanced DMEM/F-12 (Invitrogen, cat. 12634028), 4.9% defined fetal bovine serum, heat inactivated (HyClone Laboratories Inc., Logan, UT, cat. SH30070.03HI), 389 ng/mL hydrocortisone (Sigma-Aldrich, cat. H4001), 9.7 ng/mL human EGF recombinant protein (Invitrogen, cat. PHG0313), 23.4 microg/mL adenine (Sigma-Aldrich, cat. A2786), 97.3 U/mL penicillin-streptomycin (Invitrogen, cat. 15140122), 1.9 mM L-glutamine (Invitrogen, cat. 25030081), and 9.7 microM Y-27632 dihydrochloride (Tocris Bioscience, Bristol, United Kingdom, cat. 1254). The PDCs were cultured in complete DMEM/F12 media without 10 microM Y-27632 dihydrochloride for at least two passages prior to the screen. The established cell lines NCI-H1341 and […] were cultured in DMEM/F-12, HEPES (Invitrogen, cat. 11330032), 5% defined fetal bovine serum (HyClone Laboratories Inc., cat. SH30070.03), ITS premix universal culture supplement [insulin (5 microg/mL), transferrin (5 microg/mL), and selenious acid (5 ng/mL)] […]

[1] = second compound 0.1 µM, first compound 0.0316 µM
[2] = second compound 0.1 µM, first compound 0.1 µM
[3] = second compound 0.1 µM, first compound 0.316 µM
[4] = second compound 0.1 µM, first compound 1 µM
[5] = second compound 0.1 µM, first compound 3.16 µM
[6] = second compound 0.1 µM, first compound 10 µM
[7] = second compound 0.316 µM, first compound 0.0316 µM
[8] = second compound 0.316 µM, first compound 0.1 µM
[9] = second compound 0.316 µM, first compound 0.316 µM
[10] = second compound 0.316 µM, first compound 1 µM
[11] = second compound 0.316 µM, first compound 3.16 µM
[12] = second compound 0.316 µM, first compound 10 µM
[13] = second compound 1 µM, first compound 0.0316 µM
[14] = second compound 1 µM, first compound 0.1 µM
[15] = second compound 1 µM, first compound 0.316 µM
[16] = second compound 1 µM, first compound 1 µM
[17] = second compound 1 µM, first compound 3.16 µM
[18] = second compound 1 µM, first compound 10 µM
[19] = second compound 3.16 µM, first compound 0.0316 µM
[20] = second compound 3.16 µM, first compound 0.1 µM
[21] = second compound 3.16 µM, first compound 0.316 µM
[22] = second compound 3.16 µM, first compound 1 µM
[23] = second compound 3.16 µM, first compound 3.16 µM
[24] = second compound 3.16 µM, first compound 10 µM
[25] = second compound 10 µM, first compound 0.0316 µM
[26] = second compound 10 µM, first compound 0.1 µM
[27] = second compound 10 µM, first compound 0.316 µM
[28] = second compound 10 µM, first compound 1 µM
[29] = second compound 10 µM, first compound 3.16 µM
[30] = second compound 10 µM, first compound 10 µM
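Also: spheroids exposed to compounds for seven days.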

In the case of `CCc1c2c(nc3ccc(O)cc13)-c1cc3c(c(=O)n1C2)COC(=O)[C@]3(O)CC` + CC(CO)NC(=O)c1cc(-c2ccc(Cl)cc2)nn(-c2cnn(C)c2)c1=O, the IC50 (second compound 0.1 µM) is reported as < 0.949 nM, the IC50 (second compound 0.316 µM) is reported as < 0.949 nM and the IC50 (second compound 1 µM) is reported as < 0.949 nM. For the same compound, the IC50 (second compound 3.16 µM) was < 0.949 nM, the IC50 (second compound 10 µM) was < 0.949 nM and the viability, T/C (second compound 0.1 µM, first compound 0.000949 µM) was 9.08%. For the same compound, the viability, T/C (second compound 0.1 µM, first compound 0.003 µM) was 7.28%, the viability, T/C (second compound 0.1 µM, first compound 0.00949 µM) was 5.78% and the viability, T/C (second compound 0.1 µM, first compound 0.03 µM) was 3.29%. For the same compound, the viability, T/C (second compound 0.1 µM, first compound 0.0949 µM) was 2.16%, the viability, T/C (second compound 0.1 µM, first compound 0.3 µM) was 1.46% and the viability, T/C (second compound 0.316 µM, first compound 0.000949 µM) was 8.34%. The viability, T/C (second compound 0.316 µM, first compound 0.003 µM) was 6.02%, the viability, T/C (second compound 0.316 µM, first compound 0.00949 µM) was 3.71% and the viability, T/C (second compound 0.316 µM, first compound 0.03 µM) was 3.2%. The viability, T/C (second compound 0.316 µM, first compound 0.0949 µM) was 1.99%, the viability, T/C (second compound 0.316 µM, first compound 0.3 µM) was 1.09% and the viability, T/C (second compound 1 µM, first compound 0.000949 µM) was 10.7%. The viability, T/C (second compound 1 µM, first compound 0.003 µM) was 7.68%, the viability, T/C (second compound 1 µM, first compound 0.00949 µM) was 4.79% and the viability, T/C (second compound 1 µM, first compound 0.03 µM) was 3.71%. The viability, T/C (second compound 1 µM, first compound 0.0949 µM) was 2.42%, the viability, T/C (second compound 1 µM, first compound 0.3 µM) was 1.92% and the viability, T/C (second compound 3.16 µM, first compound 0.000949 µM) was 10.8%. The viability, T/C (second compound 3.16 µM, first compound 0.003 µM) was 9.5%, the viability, T/C (second compound 3.16 µM, first compound 0.00949 µM) was 4.77% and the viability, T/C (second compound 3.16 µM, first compound 0.03 µM) was 4.01%. For the same compound, the viability, T/C (second compound 3.16 µM, first compound 0.0949 µM) was 2.56%, the viability, T/C (second compound 3.16 µM, first compound 0.3 µM) was 2.05% and the viability, T/C (second compound 10 µM, first compound 0.000949 µM) was 13.8%. For the same compound, the viability, T/C (second compound 10 µM, first compound 0.003 µM) was 12.5%, the viability, T/C (second compound 10 µM, first compound 0.00949 µM) was 6.57% and the viability, T/C (second compound 10 µM, first compound 0.03 µM) was 4.99%. The viability, T/C (second compound 10 µM, first compound 0.0949 µM) was 2.67% and the viability, T/C (second compound 10 µM, first compound 0.3 µM) was 2.21%.
In the case of `Nc1ccn(C2OC(CO)C(O)C2(F)F)c(=O)n1` (stereo not given) + CC(CO)NC(=O)c1cc(-c2ccc(Cl)cc2)nn(-c2cnn(C)c2)c1=O, the IC50 (second compound 0.1 µM) is reported as < 31.6 nM, the IC50 (second compound 0.316 µM) is reported as < 31.6 nM and the IC50 (second compound 1 µM) is reported as < 31.6 nM. The IC50 (second compound 3.16 µM) was < 31.6 nM, the IC50 (second compound 10 µM) was < 31.6 nM and the viability, T/C [1] was 2.76%. The viability, T/C [2] was 3%, the viability, T/C [3] was 3.87% and the viability, T/C [4] was 4.14%. The viability, T/C [5] was 4.54%, the viability, T/C [6] was 3.83% and the viability, T/C [7] was 3.69%. It also gave a viability, T/C [8] of 3.44%, a viability, T/C [9] of 2.94% and a viability, T/C [10] of 4.15%. For the same compound, the viability, T/C [11] was 4.75%, the viability, T/C [12] was 4.18% and the viability, T/C [13] was 2.96%. It also gave a viability, T/C [14] of 3.26%, a viability, T/C [15] of 3.72% and a viability, T/C [16] of 3.82%. For the same compound, the viability, T/C [17] was 5.38%, the viability, T/C [18] was 4.22% and the viability, T/C [19] was 3.18%. It also gave a viability, T/C [20] of 2.97%, a viability, T/C [21] of 3.84% and a viability, T/C [22] of 3.9%. The viability, T/C [23] was 4.31%, the viability, T/C [24] was 4.48% and the viability, T/C [25] was 6.37%. The viability, T/C [26] was 5.16%, the viability, T/C [27] was 4.54% and the viability, T/C [28] was 3.78%. For the same compound, the viability, T/C [29] was 4.11% and the viability, T/C [30] was 4.01%.
`O=C(c1cc(Cc2n[nH]c(=O)c3ccccc23)ccc1F)N1CCN(C(=O)C2CC2)CC1` + CC(CO)NC(=O)c1cc(-c2ccc(Cl)cc2)nn(-c2cnn(C)c2)c1=O was tested, and the IC50 (second compound 0.1 µM) was 6930 nM, the IC50 (second compound 0.316 µM) was 6970 nM and the IC50 (second compound 1 µM) was 7140 nM. For the same compound, the IC50 (second compound 3.16 µM) was 7140 nM, the IC50 (second compound 10 µM) was 4620 nM and the viability, T/C [1] was 98.1%. The viability, T/C [2] was 106%, the viability, T/C [3] was 110% and the viability, T/C [4] was 137%. For the same compound, the viability, T/C [5] was 98.1%, the viability, T/C [6] was 27.5% and the viability, T/C [7] was 102%. The viability, T/C [8] was 89.7%, the viability, T/C [9] was 112% and the viability, T/C [10] was 121%. The viability, T/C [11] was 95.5%, the viability, T/C [12] was 29.2% and the viability, T/C [13] was 96.4%. It also gave a viability, T/C [14] of 102%, a viability, T/C [15] of 105% and a viability, T/C [16] of 118%. For the same compound, the viability, T/C [17] was 104%, the viability, T/C [18] was 27.8% and the viability, T/C [19] was 94.7%. For the same compound, the viability, T/C [20] was 98.4%, the viability, T/C [21] was 111% and the viability, T/C [22] was 113%. For the same compound, the viability, T/C [23] was 91.9%, the viability, T/C [24] was 32.5% and the viability, T/C [25] was 98.1%. The viability, T/C [26] was 96%, the viability, T/C [27] was 109% and the viability, T/C [28] was 93.6%. It also gave a viability, T/C [29] of 62.1% and a viability, T/C [30] of 25.8%.
